Test system: Colletotrichum lindemuthianum
Assay: Example B: in vitro cell test, spore germination and mycelium growth in liquid culture
Format: cell-based
Conditions: 144 h, 20 ppm of tested compound, 6 days incubation, read-out: efficacy (inhibition of fungal growth)
Experimental: • Solvent: dimethyl sulfoxide Culture medium: 14.6 g anhydrous D-glucose (VWR), • 7.1 g mycological peptone (Oxoid), • 1.4 g granulated yeast extract (Merck), QSP 1 liter Inoculum: spore suspension The tested compounds were solubilized in dimethyl sulfoxide and the solution used to prepare the required range of concentrations. The final concentration of dimethyl sulfoxide used in the assay was ≤1%. A spore suspension of Colletotrichum lindemuthianum was prepared and diluted to the desired spore density. The compounds were evaluated for their ability to inhibit spore germination and mycelium growth in liquid culture assay. The compounds were added in the desired concentration to the culture medium with spores. After 6 days incubation, fungi-toxicity of compounds was determined by spectrometric measurement of mycelium growth. Inhibition of fungal growth was determined by comparing the absorbance values in wells containing the tested compounds with the absorbance in control wells without tested compounds.

Q: For `COc1ccc(-c2ncc(-c3nnc(C(F)F)o3)cn2)cc1` [I.089, 5-[5-(difluoromethyl)-1,3,4-oxadiazol-2-yl]-2-(4-methoxyphenyl)pyrimidine], which inhibition of growth at 20 µg/mL is on record?
A: 90 to 100%

Test system: not listed separately
Assay: Log P by HPLC on reversed phase columns, method [a] (EEC directive 79/831 Annex V.A8)
Format: physicochemical
Conditions: log P determined according to method [a] (HPLC on reversed phase columns)
Method in brief: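 Reversed-phase HPLC with LC-UV detection per EEC directive 79/831 Annex V.A8, acidic eluent of 0.1% formic acid in water and acetonitrile, linear gradient 10% to 95% acetonitrile. Log P derived from retention times, calibrated against straight-chain alkan-2-ones (C3–C16) by linear interpolation.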

Q: Which logP does the source give for `O=C(Cc1ccccc1)Nc1ccc(-c2nnc(C(F)F)o2)cn1` [Example I-050] here?
A: 2.54

Q: For `FC(F)c1nnc(-c2ccc(-c3nnc(C(F)F)o3)cc2)o1` [Example I-019], which logP is on record?
A: 2.44

Q: Which logP does the source give for `Fc1ccc(Cc2ncc(-c3nnc(C(F)F)o3)cn2)cc1` [Example I-091] here?
A: 2.59

Q: With `CCn1nccc1Nc1ncc(-c2nnc(C(F)F)o2)cn1` [Example I-096] as the compound, how does the logP read?
A: 1.49

Q: With `FC(F)c1nnc(-c2cnc(-c3ccccc3)nc2)o1` [Example I-069] as the compound, how does the logP read?
A: 2.98

Q: With `Fc1ccc(Oc2ncc(-c3nnc(C(F)F)o3)cn2)cc1` [Example I-098] as the compound, how does the logP read?
A: 2.51

Q: Which logP does the source give for `CN(c1ccccc1)c1ncc(-c2nnc(C(F)F)o2)cn1` [Example I-087] here?
A: 2.80

Q: For `O=C(Nc1ccc(-c2nnc(C(F)F)o2)cn1)c1ccc(F)cc1F` [Example I-055], which logP is on record?
A: 2.77

Q: Which logP does the source give for `FC(F)c1nnc(-c2ccc(Nc3ncccn3)cc2)o1` [Example I-013] here?
A: 2.23

Q: Which logP does the source give for `COC(=O)c1ccc(-c2nnc(C(F)(F)F)s2)cc1` [Example I-011] here?
A: 3.23

Q: For `CC1(NC(=O)c2ccc(-c3nnc(C(F)F)o3)cn2)CC1` [Example I-044], which logP is on record?
A: 2.02

Q: With `CC(=O)Nc1ccc(-c2nnc(C(F)F)o2)cn1` [Example I-034] as the compound, how does the logP read?
A: 1.32

Q: For `FC(F)c1nnc(-c2ccc(Oc3ccccc3)nc2)o1` [Example I-043], which logP is on record?
A: 2.90

Q: Which logP does the source give for `FC(F)c1nnc(-c2cnc(-c3cccnc3)nc2)o1` [Example I-070] here?
A: 2.03

Q: With `Nc1ncc(-c2nnc(C(F)F)o2)cn1` [Example I-059] as the compound, how does the logP read?
A: 0.75

Q: For `Fc1ccc(-c2ncc(-c3nnc(C(F)F)o3)cn2)cc1` [Example I-077], which logP is on record?
A: 3.70

Same assay, conditions: reversed phase HPLC column; Method A: LC-UV, acidic range, 0.1% formic acid in water and acetonitrile; read-out: Log P

Q: Which chromatographic logP does the source give for `CCc1noc(-c2ccc(C(=O)NNC(=O)OC(C)(C)C)cc2)n1` [tert-butyl 2-[4-(3-ethyl-1,2,4-oxadiazol-5-yl)benzoyl]hydrazinecarboxylate] here?
A: 1.23

Same assay, conditions: reversed phase HPLC column; log P determined according to method [a] (HPLC on reversed phase columns); read-out: logP

Q: For `FC(F)c1nnc(-c2cnc(-c3ccnc(Cl)c3)nc2)o1` [I.102, 2-(2-chloropyridin-4-yl)-5-[5-(difluoromethyl)-1,3,4-oxadiazol-2-yl]pyrimidine], which chromatographic logP is on record?
A: 2.59

Q: With `COC(=O)C1(Nc2ncc(-c3nnc(C(F)F)o3)cn2)CC1` [I.104, methyl 1-({5-[5-(difluoromethyl)-1,3,4-oxadiazol-2-yl]pyrimidin-2-yl}amino)cyclopropanecarboxylate] as the compound, how does the chromatographic logP read?
A: 1.64

Q: For `FC(F)c1nnc(-c2cnc(-c3cccc(Cl)c3)nc2)o1` [I.100, 2-(3-chlorophenyl)-5-[5-(difluoromethyl)-1,3,4-oxadiazol-2-yl]pyrimidine], which chromatographic logP is on record?
A: 4.21

Q: Which chromatographic logP does the source give for `FC(F)c1nnc(-c2cnc(NC3(c4ccccc4Cl)CC3)nc2)o1` [I.163, N-[1-(2-chlorophenyl)cyclopropyl]-5-[5-(difluoromethyl)-1,3,4-oxadiazol-2-yl]pyrimidin-2-amine] here?
A: 3.34

Q: Which chromatographic logP does the source give for `FC(F)c1nnc(-c2cnc(Nc3ccccc3C3CC3)nc2)o1` [I.119, N-(2-cyclopropylphenyl)-5-[5-(difluoromethyl)-1,3,4-oxadiazol-2-yl]pyrimidin-2-amine] here?
A: 3.1

Q: With `CCOC(=O)C1(Nc2ncc(-c3nnc(C(F)F)o3)cn2)CC1` [I.117, ethyl 1-({5-[5-(difluoromethyl)-1,3,4-oxadiazol-2-yl]pyrimidin-2-yl}amino)cyclopropanecarboxylate] as the compound, how does the chromatographic logP read?
A: 1.94

Q: With `FC(F)c1nnc(-c2cnc(OC3(c4ccccc4)COC3)nc2)o1` [I.142, 5-[5-(difluoromethyl)-1,3,4-oxadiazol-2-yl]-2-[(3-phenyloxetan-3-yl)oxy]pyrimidine] as the compound, how does the chromatographic logP read?
A: 2.51

Q: Which chromatographic logP does the source give for `FC(F)c1nnc(-c2cnc(NC3(C4CCCCC4)CC3)nc2)o1` [I.126, N-(1-cyclohexylcyclopropyl)-5-[5-(difluoromethyl)-1,3,4-oxadiazol-2-yl]pyrimidin-2-amine] here?
A: 3.57

Same assay, conditions: reversed phase HPLC column; method [a], HPLC on reversed phase columns; read-out: logP

Q: With `CC(C)(C)c1ccc(C2(Nc3ncc(-c4nnc(C(F)F)o4)cn3)CC2)cc1` [I.242, N-[1-(4-tert-butylphenyl)cyclopropyl]-5-[5-(difluoromethyl)-1,3,4-oxadiazol-2-yl]pyrimidin-2-amine] as the compound, how does the chromatographic logP read?
A: 4.05

Q: With `O=C(c1ccc(F)cc1F)N(C(=O)c1ccc(F)cc1F)c1ncc(-c2nnc(C(F)F)o2)cn1` [I.185, N-(2,4-difluorobenzoyl)-N-{5-[5-(difluoromethyl)-1,3,4-oxadiazol-2-yl]pyrimidin-2-yl}-2,4-difluorobenzamide] as the compound, how does the chromatographic logP read?
A: 3.59

Q: For `CC(Nc1ncc(-c2nnc(C(F)F)o2)cn1)c1ccccc1C(F)(F)F` (racemic) [I.240, 5-[5-(difluoromethyl)-1,3,4-oxadiazol-2-yl]-N-{(1RS)-1-[2-(trifluoromethyl)phenyl]ethyl}pyrimidin-2-amine], which chromatographic logP is on record?
A: 3.42

Q: For `CC(Nc1ncc(-c2nnc(C(F)F)o2)cn1)c1ncccn1` (racemic) [I.191, 5-[5-(difluoromethyl)-1,3,4-oxadiazol-2-yl]-N-[(1RS)-1-(pyrimidin-2-yl)ethyl]pyrimidin-2-amine], which chromatographic logP is on record?
A: 1.49

Q: Which chromatographic logP does the source give for `Fc1ccc(C2(Nc3ncc(-c4nnc(C(F)F)o4)cn3)CCC2)cc1` [I.220, 5-[5-(difluoromethyl)-1,3,4-oxadiazol-2-yl]-N-[1-(4-fluorophenyl)cyclobutyl]pyrimidin-2-amine] here?
A: 3.33

Q: For `CC(Nc1ncc(-c2nnc(C(F)F)o2)cn1)c1cccnc1` (racemic) [I.188, 5-[5-(difluoromethyl)-1,3,4-oxadiazol-2-yl]-N-[(1RS)-1-(pyridin-3-yl)ethyl]pyrimidin-2-amine], which chromatographic logP is on record?
A: 0.74

Q: Which chromatographic logP does the source give for `COc1ccc(C(C)Nc2ncc(-c3nnc(C(F)F)o3)cn2)cc1` (racemic) [I.207, 5-[5-(difluoromethyl)-1,3,4-oxadiazol-2-yl]-N-[(1RS)-1-(4-methoxyphenyl)ethyl]pyrimidin-2-amine] here?
A: 2.75

Q: For `O=[N+]([O-])c1cc(C2(Nc3ncc(-c4nnc(C(F)F)o4)cn3)CC2)ccc1Cl` [I.259, N-[1-(4-chloro-3-nitrophenyl)cyclopropyl]-5-[5-(difluoromethyl)-1,3,4-oxadiazol-2-yl]pyrimidin-2-amine], which chromatographic logP is on record?
A: 2.96

Q: For `FC(F)c1nnc(-c2cnc(NC3(c4cccnc4)CCCC3)nc2)o1` [I.218, 5-[5-(difluoromethyl)-1,3,4-oxadiazol-2-yl]-N-[1-(pyridin-3-yl)cyclopentyl]pyrimidin-2-amine], which chromatographic logP is on record?
A: 1.29

Q: With `CC(C)(Nc1ncc(-c2nnc(C(F)F)o2)cn1)c1ccccn1` [I.198, 5-[5-(difluoromethyl)-1,3,4-oxadiazol-2-yl]-N-[2-(pyridin-2-yl)propan-2-yl]pyrimidin-2-amine] as the compound, how does the chromatographic logP read?
A: 1.11

Q: For `Fc1ccccc1C1(N(CC(F)F)c2ncc(-c3nnc(C(F)F)o3)cn2)CC1` [I.261, N-(2,2-difluoroethyl)-5-[5-(difluoromethyl)-1,3,4-oxadiazol-2-yl]-N-[1-(2-fluorophenyl)cyclopropyl]pyrimidin-2-amine], which chromatographic logP is on record?
A: 4.4

Q: With `FC(F)c1nnc(-c2cnc(NC3(c4cc(Cl)ccc4Cl)CC3)nc2)o1` [I.251, N-[1-(2,5-dichlorophenyl)cyclopropyl]-5-[5-(difluoromethyl)-1,3,4-oxadiazol-2-yl]pyrimidin-2-amine] as the compound, how does the chromatographic logP read?
A: 3.84

Q: With `COc1cccc(C2(Nc3ncc(-c4nnc(C(F)F)o4)cn3)CC2)c1F` [I.236, 5-[5-(difluoromethyl)-1,3,4-oxadiazol-2-yl]-N-[1-(2-fluoro-3-methoxyphenyl)cyclopropyl]pyrimidin-2-amine] as the compound, how does the chromatographic logP read?
A: 2.81

Q: For `FC(F)c1nnc(-c2cnc(NC3(c4cc(Cl)cc(Cl)c4)CC3)nc2)o1` [I.254, N-[1-(3,5-dichlorophenyl)cyclopropyl]-5-[5-(difluoromethyl)-1,3,4-oxadiazol-2-yl]pyrimidin-2-amine], which chromatographic logP is on record?
A: 3.63

Q: For `CC(Nc1ncc(-c2nnc(C(F)F)o2)cn1)C1(C)CC1` (racemic) [I.186, 5-[5-(difluoromethyl)-1,3,4-oxadiazol-2-yl]-N-[(1RS)-1-(1-methylcyclopropyl)ethyl]pyrimidin-2-amine], which chromatographic logP is on record?
A: 2.91

Q: With `FC(F)c1nnc(-c2cnc(NC3(c4ccccc4)CC3)nc2)o1` [I.195, 5-[5-(difluoromethyl)-1,3,4-oxadiazol-2-yl]-N-(1-phenylcyclopropyl)pyrimidin-2-amine] as the compound, how does the chromatographic logP read?
A: 2.62

Q: For `CON(c1ncc(-c2nnc(C(F)F)o2)cn1)C(C)c1cccc(C(F)(F)F)c1` (racemic) [I.184, N-{5-[5-(difluoromethyl)-1,3,4-oxadiazol-2-yl]pyrimidin-2-yl}-O-methyl-N-{(1RS)-1-[3-(trifluoromethyl)phenyl]ethyl}hydroxylamine], which chromatographic logP is on record?
A: 3.94

Q: For `FC(F)c1nnc(-c2cnc(NC3(c4ccc(Cl)cc4)CC3)nc2)o1` [I.226, N-[1-(4-chlorophenyl)cyclopropyl]-5-[5-(difluoromethyl)-1,3,4-oxadiazol-2-yl]pyrimidin-2-amine], which chromatographic logP is on record?
A: 3.16

Q: With `Fc1ccc(CCNc2ncc(-c3nnc(C(F)F)o3)cn2)cc1` [I.200, 5-[5-(difluoromethyl)-1,3,4-oxadiazol-2-yl]-N-[2-(4-fluorophenyl)ethyl]pyrimidin-2-amine] as the compound, how does the chromatographic logP read?
A: 2.84

— patent US20220144815A1, “1,3,4-OXADIAZOLES AND THEIR DERIVATIVES AS NEW ANTIFUNGAL AGENTS” (Bayer Aktiengesellschaft, priority 2018, published 2022)
